{
  "source": "PubChem BioAssay AID1259407",
  "about": "(Chemical Carcinogenesis Research Information System (CCRIS), 2018)",
  "system": "CCRIS mutagenicity, Ames/micronucleus/aberration tests",
  "test": "CCRIS mutagenicity studies",
  "key": {"[1]": {"settings": "Test System: AMES SALMONELLA TYPHIMURIUM, Strain/Indicator: TA100, Metabolic Activation: NONE, Method: STANDARD PLATE"}, "[2]": {"settings": "Test System: AMES SALMONELLA TYPHIMURIUM, Strain/Indicator: TA1535, Metabolic Activation: NONE, Method: STANDARD PLATE"}, "[3]": {"settings": "Test System: AMES SALMONELLA TYPHIMURIUM, Strain/Indicator: TA98, Metabolic Activation: NONE, Method: PREINCUBATION"}, "[4]": {"settings": "Test System: AMES SALMONELLA TYPHIMURIUM, Strain/Indicator: TA100, Metabolic Activation: NONE, Method: PREINCUBATION"}},
  "note": "The source made the active and inactive calls. The rule behind the calls is not given here.",
  "data": [
    {"smiles": "C[C@]12CC[C@H](O)C[C@@H]1CC[C@@H]1[C@@H]2CC[C@]2(C)NC(=O)CC[C@@H]12", "values": [
      {"measurement": "mutagenic call", "setting": "Test System: AMES SALMONELLA TYPHIMURIUM, Strain/Indicator: TA98, Metabolic Activation: NONE, Method: STANDARD PLATE", "value": "inactive; negative"},
      {"measurement": "mutagenic call", "setting": "Test System: AMES SALMONELLA TYPHIMURIUM, Strain/Indicator: TA98, Metabolic Activation: RAT, LIVER, S-9, AROCLOR 1254, Method: STANDARD PLATE", "value": "inactive; negative"},
      {"measurement": "mutagenic call", "setting": "[1]", "value": "inactive; negative"},
      {"measurement": "mutagenic call", "setting": "Test System: AMES SALMONELLA TYPHIMURIUM, Strain/Indicator: TA100, Metabolic Activation: RAT, LIVER, S-9, AROCLOR 1254, Method: STANDARD PLATE", "value": "inactive; negative"},
      {"measurement": "mutagenic call", "setting": "[2]", "value": "inactive; negative"},
      {"measurement": "mutagenic call", "setting": "Test System: AMES SALMONELLA TYPHIMURIUM, Strain/Indicator: TA1535, Metabolic Activation: RAT, LIVER, S-9, AROCLOR 1254, Method: STANDARD PLATE", "value": "inactive; negative"},
      {"measurement": "mutagenic call", "setting": "Test System: AMES SALMONELLA TYPHIMURIUM, Strain/Indicator: TA1537, Metabolic Activation: NONE, Method: STANDARD PLATE", "value": "inactive; negative"},
      {"measurement": "mutagenic call", "setting": "Test System: AMES SALMONELLA TYPHIMURIUM, Strain/Indicator: TA1537, Metabolic Activation: RAT, LIVER, S-9, AROCLOR 1254, Method: STANDARD PLATE", "value": "inactive; negative"}
    ]},
    {"smiles": "O=C1C=CC[C@H](/C=C/c2ccccc2)O1", "values": [
      {"measurement": "mutagenic call", "setting": "End Point: IN VITRO CHROMOSOMAL ABERRATIONS, Test System: CHO CELLS, Metabolic Activation: NONE", "value": "active; positive (structural changes)"},
      {"measurement": "mutagenic call", "setting": "End Point: IN VITRO CHROMOSOMAL ABERRATIONS, Test System: CHO CELLS, Metabolic Activation: RAT, LIVER, S-9, AROCLOR 1254", "value": "active; positive (structural changes)"}
    ]},
    {"smiles": "O=[C]/C=C\\C(=O)CC(=O)CC(=O)O", "values": [
      {"measurement": "mutagenic call", "setting": "Test System: CHINESE HAMSTER V-79, Strain/Indicator: V-79 (HGPRT)/6-THIOGUANINE, Metabolic Activation: NONE", "value": "inactive; negative"}
    ]},
    {"smiles": "CCCCCCC(=O)OCC", "values": [
      {"measurement": "mutagenic call", "setting": "Test System: AMES SALMONELLA TYPHIMURIUM, Strain/Indicator: TA97, Metabolic Activation: NONE, Method: PREINCUBATION", "value": "inactive; negative"},
      {"measurement": "mutagenic call", "setting": "Test System: AMES SALMONELLA TYPHIMURIUM, Strain/Indicator: TA97, Metabolic Activation: RAT, LIVER, S-9, AROCLOR 1254, Method: PREINCUBATION", "value": "inactive; negative"},
      {"measurement": "mutagenic call", "setting": "Test System: AMES SALMONELLA TYPHIMURIUM, Strain/Indicator: TA102, Metabolic Activation: NONE, Method: PREINCUBATION", "value": "inactive; negative"},
      {"measurement": "mutagenic call", "setting": "Test System: AMES SALMONELLA TYPHIMURIUM, Strain/Indicator: TA102, Metabolic Activation: RAT, LIVER, S-9, AROCLOR 1254, Method: PREINCUBATION", "value": "inactive; negative"}
    ]},
    {"smiles": "CC(=O)Oc1cc([N+](=O)[O-])c2ccc3cccc4ccc1c2c43", "values": [
      {"measurement": "mutagenic call", "setting": "Test System: AMES SALMONELLA TYPHIMURIUM, Strain/Indicator: TA98(1,8-DNP6), Metabolic Activation: NONE, Method: PREINCUBATION", "value": "active; positive"},
      {"measurement": "mutagenic call", "setting": "Test System: AMES SALMONELLA TYPHIMURIUM, Strain/Indicator: TA98(NR), Metabolic Activation: NONE, Method: PREINCUBATION", "value": "active; positive"},
      {"measurement": "mutagenic call", "setting": "[3]", "value": "active; positive"},
      {"measurement": "mutagenic call", "setting": "Test System: AMES SALMONELLA TYPHIMURIUM, Strain/Indicator: TA98, Metabolic Activation: RAT, LIVER, S-9, AROCLOR 1254, Method: PREINCUBATION", "value": "inactive; negative"},
      {"measurement": "mutagenic call", "setting": "[4]", "value": "active; positive"},
      {"measurement": "mutagenic call", "setting": "Test System: AMES SALMONELLA TYPHIMURIUM, Strain/Indicator: TA100, Metabolic Activation: RAT, LIVER, S-9, AROCLOR 1254, Method: PREINCUBATION", "value": "active; positive"}
    ]},
    {"smiles": "CC(=O)OCCN(CCC#N)c1ccc(N=Nc2ccc([N+](=O)[O-])cc2)cc1", "values": [
      {"measurement": "mutagenic call", "setting": "End Point: IN VITRO CHROMOSOMAL ABERRATIONS, Test System: CHL CELLS, Metabolic Activation: RAT, LIVER, S-9, SODIUM PHENOBARBITAL AND 5,6-BENZOFLAVONE", "value": "inactive; negative"}
    ]},
    {"smiles": "CC(C)NCC(O)c1cc(O)cc(O)c1", "note": "(centres undefined)", "values": [
      {"measurement": "mutagenic call", "setting": "End Point: MORPHOLOGICAL TRANSFORMATION, Test System: SYRIAN HAMSTER EMBRYO CELLS (SHE), Metabolic Activation: NONE", "value": "inactive; negative"}
    ]},
    {"smiles": "CN(C)C(=O)Cl", "values": [
      {"measurement": "mutagenic call", "setting": "[1]", "value": "active; positive"},
      {"measurement": "mutagenic call", "setting": "[2]", "value": "active; positive"},
      {"measurement": "mutagenic call", "setting": "Test System: E. COLI, Strain/Indicator: WP2 UVRA, Metabolic Activation: HAMSTER, LIVER, S-9, AROCLOR 1254, Method: PREINCUBATION", "value": "inactive; negative"},
      {"measurement": "mutagenic call", "setting": "Test System: E. COLI, Strain/Indicator: WP2 UVRA, Metabolic Activation: HAMSTER, LIVER, S-9, AROCLOR 1254, Method: STANDARD PLATE", "value": "inactive; negative"},
      {"measurement": "mutagenic call", "setting": "Test System: E. COLI, Strain/Indicator: WP2 UVRA, Metabolic Activation: HAMSTER, LIVER, S-9, Method: STANDARD PLATE", "value": "inactive; negative"},
      {"measurement": "mutagenic call", "setting": "Test System: E. COLI, Strain/Indicator: WP2 UVRA, Metabolic Activation: MOUSE, LIVER, S-9, AROCLOR 1254, Method: PREINCUBATION", "value": "inactive; negative"},
      {"measurement": "mutagenic call", "setting": "Test System: E. COLI, Strain/Indicator: WP2 UVRA, Metabolic Activation: MOUSE, LIVER, S-9, AROCLOR 1254, Method: STANDARD PLATE", "value": "inactive; negative"},
      {"measurement": "mutagenic call", "setting": "Test System: E. COLI, Strain/Indicator: WP2 UVRA, Metabolic Activation: MOUSE, LIVER, S-9, Method: PREINCUBATION", "value": "inactive; negative"},
      {"measurement": "mutagenic call", "setting": "Test System: E. COLI, Strain/Indicator: WP2 UVRA, Metabolic Activation: MOUSE, LIVER, S-9, Method: STANDARD PLATE", "value": "inactive; negative"},
      {"measurement": "mutagenic call", "setting": "Test System: E. COLI, Strain/Indicator: WP2 UVRA, Metabolic Activation: NONE, Method: STANDARD PLATE", "value": "inactive; negative"},
      {"measurement": "mutagenic call", "setting": "Test System: E. COLI, Strain/Indicator: WP2 UVRA, Metabolic Activation: RAT, LIVER, S-9, AROCLOR 1254, Method: STANDARD PLATE", "value": "inactive; negative"},
      {"measurement": "mutagenic call", "setting": "Test System: E. COLI, Strain/Indicator: WP2 UVRA, Metabolic Activation: RAT, LIVER, S-9, Method: STANDARD PLATE", "value": "inactive; negative"},
      {"measurement": "mutagenic call", "setting": "Test System: MOUSE LYMPHOMA, Strain/Indicator: L5178Y (TK+/TK-), Metabolic Activation: NONE, Method: SUSPENSION/PLATE", "value": "active; positive"},
      {"measurement": "mutagenic call", "setting": "Test System: MOUSE LYMPHOMA, Strain/Indicator: L5178Y (TK+/TK-), Metabolic Activation: RAT, LIVER, S-9, AROCLOR 1254, Method: SUSPENSION/PLATE", "value": "active; positive"}
    ]},
    {"smiles": "CC(C)(c1ccccc1)c1ccc(O)cc1", "values": [
      {"measurement": "mutagenic call", "setting": "[3]", "value": "inactive; negative"},
      {"measurement": "mutagenic call", "setting": "Test System: AMES SALMONELLA TYPHIMURIUM, Strain/Indicator: TA98, Metabolic Activation: RAT LIVER S-9, PHENOBARBITAL AND BETA-NAPHTHOFLAVONE, Method: PREINCUBATION", "value": "inactive; negative"},
      {"measurement": "mutagenic call", "setting": "[4]", "value": "inactive; negative"},
      {"measurement": "mutagenic call", "setting": "Test System: AMES SALMONELLA TYPHIMURIUM, Strain/Indicator: TA100, Metabolic Activation: RAT LIVER S-9, PHENOBARBITAL AND BETA-NAPHTHOFLAVONE, Method: PREINCUBATION", "value": "inactive; negative"},
      {"measurement": "mutagenic call", "setting": "Test System: AMES SALMONELLA TYPHIMURIUM, Strain/Indicator: TA1535, Metabolic Activation: NONE, Method: PREINCUBATION", "value": "inactive; negative"},
      {"measurement": "mutagenic call", "setting": "Test System: AMES SALMONELLA TYPHIMURIUM, Strain/Indicator: TA1535, Metabolic Activation: RAT LIVER S-9, PHENOBARBITAL AND BETA-NAPHTHOFLAVONE, Method: PREINCUBATION", "value": "inactive; negative"},
      {"measurement": "mutagenic call", "setting": "Test System: AMES SALMONELLA TYPHIMURIUM, Strain/Indicator: TA1537, Metabolic Activation: NONE, Method: PREINCUBATION", "value": "inactive; negative"},
      {"measurement": "mutagenic call", "setting": "Test System: AMES SALMONELLA TYPHIMURIUM, Strain/Indicator: TA1537, Metabolic Activation: RAT LIVER S-9, PHENOBARBITAL AND BETA-NAPHTHOFLAVONE, Method: PREINCUBATION", "value": "inactive; negative"},
      {"measurement": "mutagenic call", "setting": "Test System: AMES SALMONELLA TYPHIMURIUM, Strain/Indicator: TA1538, Metabolic Activation: NONE, Method: PREINCUBATION", "value": "inactive; negative"},
      {"measurement": "mutagenic call", "setting": "Test System: AMES SALMONELLA TYPHIMURIUM, Strain/Indicator: TA1538, Metabolic Activation: RAT LIVER S-9, PHENOBARBITAL AND BETA-NAPHTHOFLAVONE, Method: PREINCUBATION", "value": "inactive; negative"},
      {"measurement": "mutagenic call", "setting": "Test System: E.COLI, Strain/Indicator: WP2UVRA, Metabolic Activation: NONE, Method: PREINCUBATION", "value": "inactive; negative"},
      {"measurement": "mutagenic call", "setting": "Test System: E.COLI, Strain/Indicator: WP2UVRA, Metabolic Activation: RAT LIVER S-9, PHENOBARBITAL AND BETA-NAPHTHOFLAVONE, Method: PREINCUBATION", "value": "inactive; negative"}
    ]}
  ]
}
